Values belong to the molecule of their own block, whether it stands above or below them.
Columns and labels:
[1] = tested on: green peach aphid (Myzus persicae); test: Example M: Myzus persicae test, activity increase by ammonium/phosphonium salts in combination with penetrants; assay type: in vivo; settings: for Kill (%) after 6 d +AS 1000 ppm: + ammonium sulphate 1000 ppm; for Kill (%) after 6 d +RME 1000 ppm: + rapeseed oil methyl ester 1000 ppm; for Kill (%) after 6 d: no additive
Description: Activity Increase by Ammonia/Phosphonium Salts in Combination with Penetrants
Solvent: 7 parts by weight of dimethylformamide
Emulsifier: 2 parts by weight of alkylaryl polyglycol ether
To produce a suitable preparation of active compound, 1 part by weight of active compound is mixed with the stated amounts of solvent and emulsifier and the concentrate is diluted with emulsifier-containing water to the desired concentration. For the application with penetrants (rapeseed oil methyl ester 500 EW), ammonium or phosphonium salts or ammonium salts and penetrants (rapeseed oil methyl ester 500 EW), these are in each case added in a concentration of 1000 ppm to the spray liquor.
Paprika plants (Capsicum annuum) which are heavily infested by the green peach aphid (Myzus persicae) are treated by being sprayed to run off point with the preparation of active compound at the desired concentration.
After the desired period of time, the kill in % is determined. 100% means that all animals have been killed; 0% means that none of the animals have been killed.
In this test, for example, the following compounds of the Preparation Examples show good efficacy: see table

Summer wheat = test: Example C: Herbicidal post-emergence action, use of safeners (crop plant damage); assay type: in vivo; settings: for Summer wheat observed (%), 10 days after application: greenhouse container trial; for Summer wheat observed (%): 10 days after application, no safener;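 on Summer wheat observed (%), 10 days after application: 100% means plants died and 0% means like untreated controls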
Description: (§1) Herbicidal Post-Emergence Action
(§2) Seeds of monocotylos and dicotylos weed and crop plants are placed into sandy lawn in wood fibre pots or in plastic pots, covered with soil and cultivated in a greenhouse, during the vegetation period also outdoors outside of the greenhouse, under good growth conditions. Two to three weeks after sowing, the test plants are treated at the one- to three-leaf stage. The test compounds, formulated as wettable powders (WP) or liquid (EC), are, in the various dosages at a water application rate of 300 l/ha (converted), with wetting agent (0.2 to 0.3%) added, sprayed onto the plants and the surface of the soil. […]
(§3) If it is additionally to be tested as to whether safeners can improve the plant compatibility of test substances in the case of crop plants, the following options are used for applying the safener: • seeds of the crop plants are, before sowing, dressed with safener substance (the amount of safener stated in percent, based on the weight of the seed) • before the application of the test substances, the crop plants are sprayed with the safener at a certain application rate per hectare (usually 1 day before the application of the test substances) • the safener is applied together with the test substance as a tank mix (the amount of safener is stated in g/ha or as a ratio, based on the herbicide).
(§4) By comparing the effect of test substances on crop plants without or with safener treatment, it is possible to assess the effect of the safener substance.
(§5) Container trials in the greenhouse, treatment with safener 1 day prior to herbicide application

Summer barley = test: as above; assay type: in vivo; settings: no safener
Description: as §1, §2, §3, §4, §5

[2] = Description: Use was made of leaves which, fully developed, were cut from apple trees of the cultivar golden delicious.
Only the cuticles, free from hairs and stoma, of the upper sides of the leaves were then used. They were washed repeatedly alternating with water and a buffer solution of pH 7. The clean cuticles obtained were then mounted on Teflon plates and smoothed and dried with a gentle stream of air.
In the next step, the cuticle membranes obtained in this manner were placed into stainless steel diffusion cells (=transport chambers) for membrane transport studies. […] The arrangement was chosen such that the morphological outside of the cuticles was facing outwards, i.e. exposed to air, whereas the original inside was facing the interior of the diffusion cells.
The diffusion cells were filled with a 30% strength ethylene glycol/water solution. To determine the penetration, in each case 10 μl of the spray liquor of the composition below were applied to the outside of the cuticles. The spray liquor was prepared using local tap water of medium hardness.
After the spray liquors had been applied, the water was allowed to evaporate and the chambers were inverted and placed into thermostated taps in which temperature and atmospheric humidity over the cuticles could be adjusted using a gentle stream of air onto the cuticles with the spray coating (20° C., 60% rh).

[3] = logP determination by HPLC on a reverse-phase column (C 18), EEC Directive 79/831 Annex V.A8; assay type: physicochemical; settings: HPLC reverse-phase C 18, 43° C., acidic range (pH 2.3), 0.1% aqueous phosphoric acid/acetonitrile; for chromatographic logP: reverse-phase HPLC column (C 18)
Description: The logP values given in the table were determined in accordance with EEC Directive 79/831 Annex V.A8 by HPLC (High Performance Liquid Chromatography) on a reverse-phase column (C 18). Temperature: 43° C.
Mobile phases for the determination in the acidic range (pH 2.3): 0.1% aqueous phosphoric acid, acetonitrile; linear gradient from 10% acetonitrile to 90% acetonitrile.
Calibration was carried out using unbranched alkan-2-ones (having 3 to 16 carbon atoms) with known logP values (determination of the logP values by retention times using linear interpolation between two successive alkanones).

[4] = 10 days after application, 12.5 g of a.i./ha
[5] = 10 days after application, 25 g of a.i./ha
[6] = 10 days after application, 50 g of a.i./ha

SMILES: COC1CCC2(CC1)NC(=O)C(c1c(C3CC3)cc(C)cc1C1CC1)=C2O (centres unmarked) [Example I-1-a-15]
- Kill (%) after 6 d +AS + RME in each case 1000 ppm ([1]; 4 ppm): 95%
- Kill (%) after 6 d +AS 1000 ppm ([1]; 4 ppm): 15%
- Kill (%) after 6 d +RME 1000 ppm ([1]; 4 ppm): 55%
- Kill (%) after 6 d ([1]; 4 ppm): 5%
- Kill (%) after 6 d +AS + RME in each case 1000 ppm ([1]; 20 ppm): 98%
- Kill (%) after 6 d +AS 1000 ppm ([1]; 20 ppm): 95%
- Kill (%) after 6 d +RME 1000 ppm ([1]; 20 ppm): 95%
- Kill (%) after 6 d ([1]; 20 ppm): 95%

SMILES: CCc1cc(C)cc(C2CC2)c1C1=C(O)C2CCCN2C1=O (centres unmarked) [Example I-1-a-18]
- Summer wheat observed (%), 10 days after application (Summer wheat; 12.5 g of a.i./ha): 10%
- Summer wheat observed (%), 10 days after application (Summer wheat; 25 g of a.i./ha): 15%
- Summer wheat observed (%), 10 days after application (Summer wheat; 50 g of a.i./ha): 25%
- Summer wheat observed (%), 10 days after application (Summer wheat; 100 g of a.i./ha): 40%
- Summer barley observed (%) (Summer barley; [4]): 10%
- Summer barley observed (%) (Summer barley; [5]): 15%
- Summer barley observed (%) (Summer barley; [6]): 25%
- Summer barley observed (%) (Summer barley; 10 days after application, 100 g of a.i./ha): 35%
- Summer barley observed (%) (Summer barley; 28 days after application, 50 g of a.i./ha): 10%
- Summer barley observed (%) (Summer barley; 28 days after application, 100 g of a.i./ha): 20%

SMILES: CCOC(=O)OC1=C(c2c(C3CC3)cc(C)cc2C2CC2)C(=O)NC1(C)C [Example I-1-c-13]
- Summer wheat observed (%) (Summer wheat; 12.5 g of a.i./ha): 20%
- Summer wheat observed (%) (Summer wheat; 25 g of a.i./ha): 30%
- Summer wheat observed (%) (Summer wheat; 50 g of a.i./ha): 40%
- Summer barley observed (%) (Summer barley; [4]): 5%
- Summer barley observed (%) (Summer barley; [5]): 20%
- Summer barley observed (%) (Summer barley; [6]): 30%

SMILES: CCc1cc(C)cc(C2CC2)c1C1=C(O)[C@]2(CC[C@@H](OC)CC2)OC1=O [Example I-2-a-2]
- chromatographic logP [3]: 3.07

SMILES: Cc1cc(C2CC2)cc(C)c1C1=C(O)C2(CCOCC2)OC1=O [Example I-2-a-5]
- logP [3]: 2.36

SMILES: CCOC(=O)C1(OC(=O)Cc2c(CC)cc(C)cc2C2CC2)CCC(OC)CC1 (centres unmarked) [III-1]
- chromatographic logP [3]: 5.15

Further lines, results first:

- Penetration after 24 h/% a.i. + AS (1 g/l) [2]: 1.1%
- Penetration after 24 h/% a.i. + RME (1 g/l) [2]: 35.6%
- Penetration after 24 h/% a.i. + RME (1 g/l) + AS (1 g/l) [2]: 56.9%
SMILES: CCc1cc(C2CC2)cc(C2CC2)c1C1=C(O)C(C)(C)NC1=O [Example I-1-a-21]

- chromatographic logP [3]: 2.81
SMILES: CCc1cc(C)cc(C2CC2)c1C1=C(O)[C@]2(CC[C@H](OC)CC2)OC1=O [Example I-2-a-1]

- chromatographic logP [3]: 5.03
SMILES: CCc1cc(C)cc(C2CC2)c1C1=C(OC(=O)C(C)(C)C)[C@]2(CC[C@H](OC)CC2)OC1=O [Example I-2-b-1]

From patent US8541617B2, “Cycloalkylphenyl substituted cyclic ketoenols” (Bayer Cropscience AG, priority 2006, dated 2013)
